{"source": "patent US20220218695A1", "about": "“COMBINATION OF AN ALPHA2-ADRENOCEPTOR SUBTYPE C (ALPHA-2C) ANTAGONISTS WITH A TASK1/3 CHANNEL BLOCKER FOR THE TREATMENT OF SLEEP APNEA” (Bayer Aktiengesellschaft, priority 2019, published 2022)", "tested_on": "upper airway collapsibility in anaesthetized, spontaneously breathing pigs", "assay": "pig model of obstructive sleep apnea (OSA): upper airway collapsibility under negative pressure", "type": "in vivo, German Landrace pigs", "text": "The therapeutic potential of the combination of an α2-Adrenoceptor subtype C (alpha-2C) antagonists with a TASK1/3 channel blocker according to the present invention in sleep apnea can be assessed preclinically in a pig model of obstructive sleep apnea (OSA).\nUsing negative pressure, it is possible to induce collapse and thus obstruction of the upper respiratory tract in anaesthetized, spontaneously breathing pigs (Wirth K. J. et al., Sleep 36(5)(2013) pp. 699-708).\nGerman Landrace pigs are used for the model. The pigs are anaesthetized and tracheotomized. Two tracheal cannulas are inserted into the trachea, one into the rostral part and the other into the caudal part of the trachea. Using a connection piece, the rostral cannula is connected to a tube to the negative pressure device and to the distal tracheal cannula. The distal tracheal cannula is additionally connected to a tube with an open end to atmosphere via a connection piece that served for free tracheal breathing, circumventing the upper airway. By appropriate opening and clamping of those tubes breathing can be switched from nasal breathing to breathing through the caudal tracheal cannula, circumventing the upper airway, and the (isolated) upper airway can be connected to the negative pressure device, causing airflow in the inspiratory direction.\nAt certain points in time, the collapsibility of the upper respiratory tract is tested by having the pig breathe via the caudal cannula and applying negative pressures of −50, −100 and −150 cm water head (cm H2O) to the upper respiratory tract. This causes the upper respiratory tract to collapse, which manifests itself in an interruption of the airflow and a pressure drop in the tube system. This test is conducted prior to the administration of the test substance and at certain intervals after the administration of the test substance. An appropriately effective test substance can prevent this collapse of the respiratory tract in the inspiratory phase.", "key": {"[1]": {"settings": "alpha-2C antagonist alone, 90 min after bolus injection […] and start of infusion 0.005 μg/kg/h"}, "[2]": {"settings": "0 min (time point of i.v. bolus […] and start of infusion 0.005 μg/kg/h; baseline)"}, "[3]": {"settings": "30 min after i.v. bolus […] and start of infusion 0.005 μg/kg/h, alpha-2C antagonist alone"}, "[4]": {"settings": "60 min after i.v. bolus […] and start of infusion 0.005 μg/kg/h, alpha-2C antagonist alone"}, "[5]": {"settings": "90 min after i.v. bolus […] and start of infusion 0.005 μg/kg/h, time point of nasal application of TASK1/3 channel blocker"}, "[6]": {"settings": "0 min (time point of intranasal administration of 0.3 μg; baseline), TASK1/3 blocker alone"}, "[7]": {"settings": "10 min after intranasal administration of 0.3 μg, TASK1/3 blocker alone"}, "[8]": {"settings": "30 min after intranasal administration of 0.3 μg, TASK1/3 blocker alone"}, "[9]": {"settings": "60 min after intranasal administration of 0.3 μg, TASK1/3 blocker alone"}}}
{"smiles": "COC[C@@]1(C)CCCN2CCc3c(oc4ccccc34)[C@@H]21", "note": "[(1S,12bS)-1-(methoxymethyl)-1-methyl-1,3,4,6,7,12b-hexahydro-2H-[1]benzofuro[2,3-a]quinolizine]", "values": [{"measurement": "upper airway collapsibility at negative pressures of −50 cm head (cm H2O)", "setting": "[1]", "result": "only inhibited"}, {"measurement": "upper airway collapsibility at negative pressures of −100 and −150 cm head (cm H2O)", "setting": "[1]", "result": "induced"}, {"measurement": "effectiveness of dose on upper airway collapsibility", "setting": "alpha-2C antagonist alone, i.v. bolus […] + infusion 0.005 μg/kg/h", "result": "non effective dose"}, {"measurement": "inhibited upper airway collapsibility at all negative pressures of −50, −100 and −150 cm head (cm H2O)", "setting": "alpha-2C antagonist alone, i.v. bolus […] followed by i.v. infusion 0.005 μg/kg/h for four hours", "result": "at no time point"}, {"measurement": "Percent pigs without collaps −50 cm H2O, %", "setting": "[2]", "result": 0, "unit": "%"}, {"measurement": "Percent pigs without collaps −50 cm H2O, %", "setting": "[3]", "result": 0, "unit": "%"}, {"measurement": "Percent pigs without collaps −50 cm H2O, %", "setting": "[4]", "result": 100, "unit": "%"}, {"measurement": "Percent pigs without collaps −50 cm H2O, %", "setting": "[5]", "result": 100, "unit": "%"}, {"measurement": "Percent pigs without collaps −100 cm H2O, %", "setting": "[2]", "result": 0, "unit": "%"}, {"measurement": "Percent pigs without collaps −100 cm H2O, %", "setting": "[3]", "result": 0, "unit": "%"}, {"measurement": "Percent pigs without collaps −100 cm H2O, %", "setting": "[4]", "result": 0, "unit": "%"}, {"measurement": "Percent pigs without collaps −100 cm H2O, %", "setting": "[5]", "result": 0, "unit": "%"}, {"measurement": "Percent pigs without collaps −150 cm H2O, %", "setting": "[2]", "result": 0, "unit": "%"}, {"measurement": "Percent pigs without collaps −150 cm H2O, %", "setting": "[3]", "result": 0, "unit": "%"}, {"measurement": "Percent pigs without collaps −150 cm H2O, %", "setting": "[4]", "result": 0, "unit": "%"}, {"measurement": "Percent pigs without collaps −150 cm H2O, %", "setting": "[5]", "result": 0, "unit": "%"}]}
{"smiles": "COc1cccc(C(=O)N2CCN(Cc3c(-c4ccc(Cl)cc4)nc4ccccn34)CC2)n1", "note": "[(4-{[2-(4-Chlorophenyl)imidazo[1,2-a]pyridin-3-yl]methyl}piperazin-1-yl)(6-methoxypyridin-2-yl)methanone]", "values": [{"measurement": "effectiveness of dose on upper airway collapsibility", "setting": "TASK1/TASK3 channel blocker alone, 0.3 μg intranasal", "result": "non effective dose"}, {"measurement": "Percent pigs without collaps −50 cm H2O, %", "setting": "[6]", "result": 0, "unit": "%"}, {"measurement": "Percent pigs without collaps −50 cm H2O, %", "setting": "[7]", "result": 0, "unit": "%"}, {"measurement": "Percent pigs without collaps −50 cm H2O, %", "setting": "[8]", "result": 0, "unit": "%"}, {"measurement": "Percent pigs without collaps −50 cm H2O, %", "setting": "[9]", "result": 0, "unit": "%"}, {"measurement": "Percent pigs without collaps −100 cm H2O, %", "setting": "[6]", "result": 0, "unit": "%"}, {"measurement": "Percent pigs without collaps −100 cm H2O, %", "setting": "[7]", "result": 0, "unit": "%"}, {"measurement": "Percent pigs without collaps −100 cm H2O, %", "setting": "[8]", "result": 0, "unit": "%"}, {"measurement": "Percent pigs without collaps −100 cm H2O, %", "setting": "[9]", "result": 0, "unit": "%"}, {"measurement": "Percent pigs without collaps −150 cm H2O, %", "setting": "[6]", "result": 0, "unit": "%"}, {"measurement": "Percent pigs without collaps −150 cm H2O, %", "setting": "[7]", "result": 0, "unit": "%"}, {"measurement": "Percent pigs without collaps −150 cm H2O, %", "setting": "[8]", "result": 0, "unit": "%"}, {"measurement": "Percent pigs without collaps −150 cm H2O, %", "setting": "[9]", "result": 0, "unit": "%"}]}
